Experimental data published in US20060258746A1, “Oral medicament for improvement in going to sleep or waking” (Kyowa Hakko Kogyo Co., Ltd., priority 2005, published 2006).

What was measured:
subjects = assay: Test Example 1: intake of ornithine tablets, improvement in waking compared with before administration; type: in vivo, human
normal subjects = assay: Test Example 2: double blind parallel group test against tablets without ornithine, going to sleep and waking rated by Visual Analogue Scale (VAS) method; type: in vivo, human; conditions: 6 tablets of example 1 a day for 3 weeks; 7 subjects per group; 45 to 64 year
Procedure: Six tablets of example 1 (the tablet containing ornithine) or 6 tablets of comparative example 1 (the tablet not containing ornithine) were administered to two groups with 7 subjects out of 14 normal subjects of each male and female between 45 to 64 year a day for 3 weeks.
Before the administration and just after the administration, the improvements in going to sleep and waking of each subject were evaluated using Visual Analogue Scale (VAS) method.
Specifically each end of the segment has a criterion of expression. Referring to FIG. 1, each subject marked somewhere in the line, corresponding to each term of the questionnaires. The distance (mm) from the left end of the line to the marked point was measured and the difference between before and after the test was calculated. The difference by the value before the test was shown in the percentage calculated; and each average value and standard deviation for each group were calculated. Further the average improvement ratio (%) was the value obtained by subtracting the average value of the placebo group from the average value of ornithine group. Further, it was confirmed that there was no difference between two groups before the administration test.
Further the test was carried out under a random assignment and the comparison between the double blind parallel groups was carried out. […]

In the case of NCCC[C@H](N)C(=O)O [ornithine], the “effect on the waking process (conclusion of test result)” value (subjects; oral intake of ornithine tablets) was “improved the waking process”, the “subjects who showed an improvement in waking” value (subjects; oral, ornithine taken just before going to sleep) was 3 subjects out of the 6 subjects and the “effect of intake just before going to sleep (conclusion of test result)” value (subjects; oral, taken just before going to sleep) was “effective”. The “improvement in going to sleep (VAS, average improvement ratio vs placebo group, FIG. 2)” value (normal subjects) was “improvement in going to sleep were obtained” and the “improvement in the waking process (VAS, average improvement ratio vs placebo group, FIG. 2)” value (normal subjects) was “improvement in the waking process was evident”.
